Source: patent US9005670B2, “Use of histone acetyltransferase inhibitors as novel anti-cancer therapies” (The Johns Hopkins University, priority 2010, dated 2015)

What was measured:
p300 HAT [1] = molecular target: T1, p300 HAT (Homo sapiens, UniProt Q09472, DEL1529-1560/M1652G); experiment: direct radioactive p300 HAT assay (14C-acetyl-CoA transfer to H4-15); assay type: biochemical; conditions: for weakening of p300 inhibitory potency compared with C646 (relative IC50): range of concentrations
T1 construct: A variant of the HAT domain of p300 (residues 1287 to 1652) was expressed as a fusion; a C-terminal peptide corresponding to residues 1653-1666 of p300; made in house; host or cells: E. coli BL21(RIL)-DE3; C-terminal peptide by solid phase synthesis
T1 sequence (Q09472 with tags, fused parts or gaps DEL1529-1560/M1652G limits assumed): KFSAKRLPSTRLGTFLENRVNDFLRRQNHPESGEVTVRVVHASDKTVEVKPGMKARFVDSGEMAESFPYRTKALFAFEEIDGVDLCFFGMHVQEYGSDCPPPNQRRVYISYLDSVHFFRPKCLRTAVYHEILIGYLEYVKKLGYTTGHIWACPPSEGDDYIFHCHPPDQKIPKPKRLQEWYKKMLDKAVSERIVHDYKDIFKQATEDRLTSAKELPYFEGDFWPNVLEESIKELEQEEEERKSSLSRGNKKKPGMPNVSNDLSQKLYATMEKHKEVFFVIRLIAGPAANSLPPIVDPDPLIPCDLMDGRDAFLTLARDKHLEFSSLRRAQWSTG
Experimental: In this assay, production of ^14C-labeled Ac-H4-15 is monitored electrophoretically. Reactions were performed in 20 mM HEPES, pH 7.9, and contained 5 mM DTT, 80 μM EDTA, 40 μg/mL BSA, 100 μM H4-15, and 5 nM p300. […] Reactions were incubated at 30° C. for 10 minutes, initiated with addition of a 1:1 mixture of 12 C-acetyl-CoA and 14 C-acetyl-CoA to a final concentration of 20 μM, and allowed to run for 10 min at 30° C. Reactions are then quenched with addition of 14% SDS (w/v). Turnover was kept below 10%. All compounds were screened in duplicate. Samples were then loaded onto a 16% Tris-Tricine gel along with a BSA standard and run at 140 V for 90 minutes. Gels were washed and dried, and exposed in a PhosphorImager cassette for ˜2 days. Bands corresponding to Ac-H4-15 were then quantified using ImageQuant.
Reactions were performed in 20 mM HEPES, pH 7.9, and contained 5 mM DTT, 80 μM EDTA, 40 μg/mL BSA, 100 μM […], and 5 nM p300. Putative inhibitors were added over a range of concentrations, with DMSO concentration kept constant (<5%). Reactions were incubated at 30° C. for 10 minutes, then initiated with addition of a 1:1 mixture of ^12C-acetyl-CoA and ^14C-acetyl-CoA to 20 μM. After […] at 30° C., reactions were quenched with 14% SDS (w/v). All concentrations were screened in duplicate. Gels were run, washed, dried, and exposed to a PhosphorImager plate as described above, and production of Ac-H4-15 quantified. Data were fit to the following equation to obtain IC50s. […]

p300 HAT [2] = molecular target: T1, p300 HAT; experiment: coupled spectrophotometric p300 HAT assay; assay type: biochemical; conditions: for % inhibition in initial screen: compounds at 100 μM
Experimental: After completing the computational docking screen, the top 194 inhibitors were tested in a convenient spectrophotometric assay as described in Kim et al., Anal. Biochem. 280, 308 (2000). In the coupled spectrophotometric assay, the acetyltransferase reaction product CoASH becomes a substrate for alpha-ketoglutarate dehydrogenase, which converts NAD to NADH, resulting in an increase of UV absorbance at 340 nm. Screening conditions for these p300 HAT assays included substrate concentrations of 200 μM histone H4-15 peptide and 50 μM acetyl-CoA, and potential small molecule inhibitors tested at 100 μM. […] To distinguish inhibitory effects related to blockade of coupling enzyme rather than p300, assays were repeated using increased (2-fold) alpha-ketoglutarate dehydrogenase. […] The remaining compounds were then assessed in a protein aggregation-related inhibition assay as described in Feng et al., Nat. Chem. Biol. 1, 146 (2005). […] In this radioactive p300 HAT assay, ^14C transfer from ^14C-acetyl-CoA into peptide substrate is directly measured using Tris-Tricine SDSPAGE and phosphorimage analysis.
The top 194 p300 HAT inhibitor candidates identified by VLS were screened using a coupled spectrophotometric assay. In this assay, CoASH produced by the p300 reaction is used by α-ketoglutarate dehydrogenase (α-KGDH) to produce NADH, which can be monitored spectrophotometrically at 340 nm. Reactions were performed at 30° C. in […] HEPES, pH 7.9, and contained 200 μM H4-15, 200 μM TPP, 5 mM MgCl 2, 1 mM DTT, 50 μg/mL BSA, 200 μM NAD, 2.4 mM α-ketoglutarate, 200 μM acetyl-CoA, 0.1 units α-KGDH, and 100 nM p300. DMSO was kept at a constant 3.3%, and candidate compounds were screened at 100 μM. Reaction mixtures were incubated at 30° C. for 10 min prior to initiation. Reactions were initiated with addition of H4-15 and followed over the linear portion of the progress curve, which provides the initial velocity via linear regression. Percent inhibition was determined by comparison with velocity without candidate added. […] To ensure that compounds were not inhibiting α-KGDH instead of p300, compounds were assayed with 0.2 units of α-KGDH, two times the amount used in the initial screen. To ensure that compounds were not inhibiting through nonspecific aggregation, compounds were assayed in the presence of 0.01% Triton X-100.

SMILES | % inhibition in initial screen (p300 HAT [2]) | other results
CC1=NN(c2ccc(C(N)=O)cc2)C(=O)C1=Cc1ccc(-c2cc(C)c(C)cc2[N+](=O)[O-])o1 [Compound 6a, 4-(4,5-dihydro-3-methyl-4-((5-(4,5-dimethyl-2-nitrophenyl)furan-2-yl)methylene)-5-oxopyrazol-1-yl)benzamide] | – | melting point: 273 to 275 °C; p300 HAT inhibition, result in words (analogs compared with C646) (p300 HAT [1]): well tolerated
CC1=NN(c2ccc(C(N)=O)c(Cl)c2)C(=O)/C1=C\c1ccc(-c2cc(C)c(C)cc2[N+](=O)[O-])o1 [Compound 6b, 4-(4,5-dihydro-3-methyl-4-((5-(4,5-dimethyl-2-nitrophenyl)furan-2-yl)methylene)-5-oxopyrazol-1-yl)-2-chloro-benzamide] | – | melting point: 267 to 269 °C
CC1=NN(c2cccc(C(=O)O)c2)C(=O)C1=Cc1ccc(-c2cc(C)c(C)cc2[N+](=O)[O-])o1 [Compound 6e, 3-(4,5-dihydro-3-methyl-4-((5-(4,5-dimethyl-2-nitrophenyl)furan-2-yl)methylene)-5-oxopyrazol-1-yl)benzoic acid] | – | melting point: 260 to 262 °C; p300 HAT inhibition, result in words (analogs compared with C646) (p300 HAT [1]): well tolerated
CC1=NN(c2ccc(S(=O)(=O)O)cc2)C(=O)C1=Cc1ccc(-c2cc(C)c(C)cc2[N+](=O)[O-])o1 [Compound 6f] | – | p300 HAT inhibition, result in words (analogs compared with C646) (p300 HAT [1]): well tolerated
CC1=NN(c2ccc(S(N)(=O)=O)cc2)C(=O)/C1=C\c1ccc(-c2cc(C)c(C)cc2[N+](=O)[O-])o1 [Compound 6g] | – | melting point: 152 to 154 °C
COC(=O)c1ccc(N2N=C(C)C(=Cc3ccc(-c4cc(C)c(C)cc4[N+](=O)[O-])o3)C2=O)cc1 [Compound 6h, Methyl 4-(4,5-dihydro-3-methyl-4-((5-(4,5-dimethyl-2-nitrophenyl)furan-2-yl)methylene)-5-oxopyrazol-1-yl)benzoate] | – | melting point: 214 to 216 °C; weakening of p300 inhibitory potency compared with C646 (relative IC50) (p300 HAT [1]): > 15 fold
COC(=O)c1cccc(N2N=C(C)/C(=C/c3ccc(-c4cc(C)c(C)cc4[N+](=O)[O-])o3)C2=O)c1 [Compound 6i, Methyl 3-(4,5-dihydro-3-methyl-4-((5-(4,5-dimethyl-2-nitrophenyl)furan-2-yl)methylene)-5-oxopyrazol-1-yl)benzoate] | – | melting point: 205 to 207 °C; p300 HAT inhibition, result in words (analogs compared with C646) (p300 HAT [1]): well tolerated
CC1=NN(CCC(=O)O)C(=O)C1=Cc1ccc(-c2cc(C)c(C)cc2[N+](=O)[O-])o1 [Compound 6k, 3-(4,5-dihydro-3-methyl-4-((5-(4,5-dimethyl-2-nitrophenyl)furan-2-yl)methylene)-5-oxopyrazol-1-yl)propanoic acid] | – | melting point: 189 to 190 °C; p300 HAT inhibition, result in words (analogs compared with C646) (p300 HAT [1]): cannot successfully replace the benzoate ring of C646 and still retain p300 inhibitory potency
CCOC(=O)c1cc(C)c(C)cc1-c1ccc(/C=C2\C(=O)N(c3ccc(C(=O)O)cc3)N=C2C)o1 [Compound 6n, 4-(4,5-dihydro-4-((5-(4,5-dimethyl-2-ethylbenzoate)furan-2-yl)methylene)-3-methyl-5-oxopyrazol-1-yl)benzoic acid] | – | melting point: 241 to 243 °C
Cc1cc(-c2ccc(C(=O)c3c(C)nn(-c4ccc(C(=O)O)cc4)c3O)o2)c([N+](=O)[O-])cc1C [Compound 6q] | – | weakening of p300 inhibitory potency compared with C646 (relative IC50) (p300 HAT [1]): 6 fold
COc1ccc(N2C(=O)CC(SCC(=O)O)C2=O)cc1 (centres unmarked) [Compound 5109125] | 0.0% | –
O=C(CSC1CC(=O)N(c2ccc(C(=O)O)cc2)C1=O)Nc1ccc(F)cc1 (centres unmarked) [Compound 5310308] | 0.0% | –
NC(=O)c1ccccc1NC(=O)CCC(=O)O [Compound 5317891] | 0.0% | –
O=C(O)CCSc1nc2ccccc2c(=O)[nH]1 [Compound 5485989] | 0.0% | –
COc1cccc(NC(=O)C(=O)NCCc2ccc(OC)c(OC)c2)c1 [Compound 5574003] | 0.0% | –
COc1ccc(CCNC(=O)c2ccccc2[N+](=O)[O-])cc1OC [Compound 5693758] | 0.0% | –
Cc1ccc(C(=O)Nc2cccc([N+](=O)[O-])c2)cc1S(=O)(=O)Nc1cccc(C(=O)O)c1 [Compound 5913514] | 0.0% | –
O=C(O)c1ccc(Br)c(S(=O)(=O)Nc2ccc(NC(=O)c3ccccc3)cc2)c1 [Compound 5913665] | 0.0% | –
O=C(O)c1cccc(NC(=O)c2cc(S(=O)(=O)Nc3cccc([N+](=O)[O-])c3)ccc2Cl)c1 [Compound 5915900] | 0.0% | –
C=CCn1c(SCC(=O)O)nc2sc3c(c2c1=O)CCCC3 [Compound 5915918] | 0.0% | –
CC(=O)c1ccc(NS(=O)(=O)c2cccc(C(=O)Nc3cccc(C(=O)O)c3)c2)cc1 [Compound 5917216] | 38.6% | –
Cc1nc(SCc2ccccc2)[nH]c(=O)c1CC(=O)O [Compound 6658754] | 0.0% | –
O=C(O)CCC(=O)Nc1ccc(-c2nc3cc(Cl)ccc3o2)cc1 [Compound 6786461] | 66.6% | % inhibition at 25 uM in radioactive assay (p300 HAT [1]; 25 uM): 0.0%; % inhibition with 2x coupling enz (p300 HAT [2]; 0.2 units α-KGDH (two times)): 100.0%; % inhibition with .01% Triton X-100 (p300 HAT [2]; aggregation control, 0.01% Triton X-100): 58.2%
COc1ccc(C(CC(=O)O)c2ccc(OC)c(OC)c2)cc1OC [Compound 6971425] | 0.0% | –
COc1cccc(CNC(=O)C(=O)Nc2ccc(C(C)C)cc2)c1 [Compound 7076620] | 0.0% | –
O=C(O)CCSCC(=O)c1ccc(NS(=O)(=O)c2ccccc2)cc1 [Compound 7112743] | 0.0% | –
COc1ccc(S(=O)(=O)N2CCCC(C(=O)O)C2)cc1 (centres unmarked) [Compound 7185124] | 0.0% | –
Cc1cc(C)c(S(=O)(=O)N2CCCC(C(=O)O)C2)c(C)c1 (centres unmarked) [Compound 7188864] | 0.0% | –
O=C(O)C1CCCN(S(=O)(=O)c2cccs2)C1 (centres unmarked) [Compound 7195131] | 0.0% | –
Cc1nc(=O)c(-c2ccccc2)c(C)n1-c1ccccc1C(=O)O [Compound 7261568] | 0.0% | –
